Measurements taken from patent US10793589B2, “Resorcinarene-based amphipathic compound and use thereof” (Industry-University Cooperation Foundation Hanyang …, priority 2016, dated 2020).
“Also recorded” adds a separate entry of the source. Read-outs that look alike come from different tables or passages of the source.

Assays:
[1] = target: T1, Salmonella typhimurium melibiose permease (MelB) (Salmonella typhimurium, UniProt P30878); assay: MelB extraction and solubility after 90 min incubation, SDS-PAGE and western blotting; format: biochemical; conditions: 1.5 wt %
T1 construct: made in house; host or cells: E. coli DW2 (melB and lacZY deleted), plasmid pK95AHB/WT MelBSt/CH10
T1 sequence (P30878 whole entry): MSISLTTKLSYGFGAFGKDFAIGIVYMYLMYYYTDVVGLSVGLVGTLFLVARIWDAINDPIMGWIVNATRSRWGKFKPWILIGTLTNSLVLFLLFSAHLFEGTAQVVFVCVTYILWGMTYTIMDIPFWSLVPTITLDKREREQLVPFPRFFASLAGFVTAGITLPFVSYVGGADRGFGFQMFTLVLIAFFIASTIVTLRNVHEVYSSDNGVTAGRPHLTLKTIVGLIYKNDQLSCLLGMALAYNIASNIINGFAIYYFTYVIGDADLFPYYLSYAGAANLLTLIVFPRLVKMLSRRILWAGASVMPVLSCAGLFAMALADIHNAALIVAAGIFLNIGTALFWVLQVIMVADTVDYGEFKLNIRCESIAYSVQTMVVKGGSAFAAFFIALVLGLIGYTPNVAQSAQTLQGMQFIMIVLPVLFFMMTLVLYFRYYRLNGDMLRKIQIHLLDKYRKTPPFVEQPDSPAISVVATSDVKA
Method: FIGS. 9A and 9B illustrate a result of measuring the amount of a MelB protein dissolved in an aqueous solution after a MelB protein was extracted at four temperatures (0, 45, 55, and 65) using RGAs or DDM at a concentration of 1.5 wt % and then incubated at the same temperatures for 90 minutes:
RGAs were selected, and an experiment was carried out to measure the structural stability of a Salmonella typhimurium melibiose permease (MelB) caused by RGAs. A MelB protein was extracted from a membrane using RGAs or DDM, and the amount and structure of the protein thus extracted was then analyzed by performing SDS-PAGE and western blotting. In this case, the concentration of the used amphipathic compound was 1.5 wt %. The protein was extracted at four temperatures (0, 45, 55, and 65° C.) and then incubated at the same temperatures for 90 minutes. Subsequently, two kinds of performance of the compound, that is, protein extraction efficiency and protein stability were evaluated at the same time by measuring the amount of a protein which remained dissolved in an aqueous solution. The amount of a protein which was extracted and stabilized by an individual amphipathic molecule was expressed as a relative value (%) with respect to the amount of the entire protein included in a membrane sample not treated with an amphipathic molecule.
Specifically, a C-terminal 10-His-tagged Salmonella typhimurium melibiose permease (MelBSt) was expressed in E. coli DW2 cells (melB and lacZY) using plasmid pK95AHB/WT MelBSt/CH10. Cells were grown and membranes were prepared according to the method described in a paper (Nat. Commun. 2014, 5, 3009) written by A. S. Ethayathulla et al. A protein assay was carried out with a Micro BCA kit (Thermo Scientific, Rockford, Ill.). RGAs and DDM were evaluated to measure the stability of MelBSt according to the protocol described in a paper (Nat. Methods 2010, 7, 1003-1008) written by P. S. Chae et al. The membrane sample (final protein concentration of 10 mg/mL) containing MelBSt was incubated in a solubilization buffer containing 1.5% (w/v) DDM or RGAs (20 mM sodium phosphate, pH 7.5, 200 mM NaCl, 10% glycerol, and 20 mM melibiose) at four temperatures (0, 45, 55, and 65° C.) for 90 minutes. An insoluble material was removed by ultracentrifugation at 355,590 g at 4° C. for 45 minutes using a Beckman Optima™ MAX ultracentrifuge equipped with a TLA-100 rotor. A dissolved portion was separated by SDS-16% PAGE, and immunoblotting was then performed using a Penta-His-HRP antibody (Qiagen, Germantown, Md.). A membrane fraction containing 20 μg of protein without treatment was used to illustrate the overall MelB, and the treated samples were loaded into each well in equal volume. MelBSt was measured using the SuperSignal West Pico Chemiluminescent substrate by ImageQuant LAS 4000 Biomolecular Imager (GE Healthcare Life Sciences).

[2] = Critical micelle concentration by fluorescence dye diphenylhexatriene (DPH); format: physicochemical
Method: A method of measuring the CMC is not particularly limited and may be any method generally known in the art. For example, the CMC may be measured according to a fluorescence staining method using diphenylhexatriene (DPH).
(§1) Specifically, critical micelle concentrations (CMCs) were measured using a fluorescence dye, diphenylhexatriene (DPH), and hydrodynamic radii (Rh) of micelles formed of each compound (1.0 wt %) were measured by a dynamic light scattering (DLS) experiment. Measured results are shown in Table 1 in comparison with values of DDM as an existing amphipathic molecule (detergent).

[3] = Hydrodynamic radius and size distribution of micelles by dynamic light scattering (DLS); format: physicochemical; conditions: compound 1.0 wt %
Method: A method of measuring the radius of a micelle is not particularly limited and may be any method generally known in the art. For example, the radius may be measured by a dynamic light scattering (DLS) experiment.
as §1
Meanwhile, size distributions of the micelles formed by RGAs and RMAs were measured using DLS.

[4] = test system: leucine transporter (LeuT); assay: LeuT structural stability, [3H]-Leu binding by scintillation proximity assay (SPA); format: biochemical, Aquifex aeolicus; conditions: CMC+0.04 wt % versus CMC+0.2 wt %
Method: (§2) FIGS. 7A and 7B are a set of graphs illustrating a result of measuring the structural stability of a leucine transporter (LeuT) solubilized in RGAs or DDM evaluated at CMC+0.04 wt % (a) or CMC+0.2 wt % (b). Protein stability was determined by measuring the ability of the transporter to bind a radiolabeled ligand ([3H]-Leu) via scintillation proximity assay (SPA). The substrate binding ability of LeuT was measured at regular intervals during 10 days of incubation of the protein at room temperature in the presence of individual amphipathic compounds.
as §2, with “8A” for “7A”, “8B” for “7B”, “RMAs” for “RGAs”
An experiment was carried out to measure the structural stability of a leucine transporter (LeuT) caused by RGAs and RMAs. The concentrations of individual amphipathic compounds were (a) CMC+0.04 wt % or (b) CMC+0.2 wt %, and the substrate binding characteristic of LeuT was measured by scintillation proximity assay (SPA) using [^3H]-Leu. […]
Specifically, wild type LeuT derived from Aquifex aeolicus which is a thermophilic bacterium was purified according to the method described in the paper (Nature 1998, 392, 353-358) written by G. Deckert et al. LeuT was expressed in E. coli C41 (DE3) transformed with pET16b encoding a C-terminal 8×His-tagged transporter (an expression plasmid was provided by Dr. E. Gouaux (Vollum Institute, Portland, Oreg., USA)). […] The protein samples were stored at room temperature for 10 days and centrifuged at designated time points, and protein characteristics were determined by measuring the binding capacity of [^3H]-Leucine using SPA. […]

[5] = target: T2, human β2 adrenergic receptor (β2AR) (Homo sapiens, UniProt P07550); assay: β2AR stability, [3H]-dihydroalprenolol (DHA) ligand binding assay; format: biochemical
T2 construct: made in house
T2 sequence (P07550 whole entry): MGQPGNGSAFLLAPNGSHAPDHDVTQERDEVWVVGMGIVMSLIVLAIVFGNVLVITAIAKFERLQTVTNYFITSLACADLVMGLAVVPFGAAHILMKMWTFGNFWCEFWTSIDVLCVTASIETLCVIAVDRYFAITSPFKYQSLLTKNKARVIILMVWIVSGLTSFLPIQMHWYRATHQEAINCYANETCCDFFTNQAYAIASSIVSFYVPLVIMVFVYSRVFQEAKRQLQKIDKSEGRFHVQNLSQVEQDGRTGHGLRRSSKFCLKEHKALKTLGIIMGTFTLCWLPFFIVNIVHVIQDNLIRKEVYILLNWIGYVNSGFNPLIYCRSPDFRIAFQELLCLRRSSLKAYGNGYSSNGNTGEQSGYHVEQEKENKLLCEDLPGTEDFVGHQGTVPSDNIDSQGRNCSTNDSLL
Method: (§3) FIGS. 10A and 10B illustrate a result of measuring the effect of RGAs on the stability of β2AR after (a) 0 hour and (b) over time. Protein-ligand binding characteristics were measured via ligand binding assay using [^3H]-dihydroalprenolol (DHA), and the measurement was carried out by sampling a protein sample at regular intervals during 2 days of storage at room temperature.
as §3, with “12A” for “10A”, “12B” for “10B”, “RMAs” for “RGAs”
An experiment was carried out to measure the structural stability of a human (32 adrenergic receptor (β2AR) and a G protein-coupled receptor (GPCR) caused by RGAs and RMAs. That is, a receptor purified with DDM was diluted with a buffer solution containing only each RGA and RMA without cholesteryl hemisuccinate (CHS) or a buffer solution containing CHS and DDM. The final concentration of the compound was CMC+0.2 wt %, and the ligand binding characteristic of the receptor was measured using [^3H]-dihydroalprenolol ([^3H]-DHA) binding.
Specifically, radioligand binding assay was carried out using the following method. β2AR was purified using 0.1% DDM according to the method described in a paper (Science, 2007, 318, 1266-1273.) written by D. M. Rosenbaum et al. and finally concentrated to about 10 mg/ml (about 200 μM). The β2AR purified with DDM was used to prepare a master binding mixture containing 10 nM [^3H]-dihydroalprenolol (DHA) supplemented with 0.5 mg/ml BSA in a 0.2% amphipathic compound (DDM, RGAs or RMAs). The receptor purified with DDM, RGAs or RMAs was incubated with 10 nM [^3H]-DHA at room temperature for 30 minutes. The mixture was loaded into a G-50 column, the flow-through was collected with 1 ml of a binding buffer (20 mM HEPES pH 7.5, 100 mM NaCl, supplemented with 0.5 mg/ml BSA and 20×CMC individual amphipathic compound, and the G-50 column was further filled with 15 ml of a scintillation fluid. Receptor-bound [^3H]-DHA was measured with a scintillation counter (Beckman). The binding capacity of [^3H]-DHA was measured and shown in a column graph. Each experiment was performed in triplicate.

[6] = target: T2, human β2 adrenergic receptor (β2AR); assay: Size exclusion chromatography (SEC) of β2AR receptor-detergent complex; conditions: 20×CMC detergent
Method: FIG. 11 illustrates a result of evaluating the size characteristic of a (32AR protein-ligand binding complex formed of RGA-C11, RGA-C13, or DDM via a size exclusion chromatography (SEC) test.
In addition, a size exclusion chromatography (SEC) test was conducted. Specifically, β2AR purified with 0.1% DDM was loaded on a M1 Flag column in the presence of 2 mM CaCl2, and the column was washed with a DDM, RGA-C11 or RGA-C13 detergent buffer (20 mM HEPES pH 7.5, 100 mM NaCl, 0.2% individual amphipathic compound). The receptor was eluted with 20×CMC DDM, RGA-C11, or RGA-C13 with 5 mM EDTA and 0.2 mg/ml free Flag peptide. The eluate was further added to a Superdex-200 10/300 GL column (GE Healthcare) at 0.5 ml/min, and UV absorbance at 280 nm was recorded. The running buffer contained 20 mM HEPES pH 7.5, 100 mM NaCl, 20×CMC individual detergent (DDM, RGA-C11 and RGA-C13).

Row | SMILES | MelB protein extraction/solubilization efficiency ([1]; 0° C.) | MelB protein extraction efficiency and solubility ([1]; 45° C.) | MelB protein extraction ([1]; 65° C.) | CMC [2] | CMC ([2]; DPH fluorescence) | CMC (wt %) ([2]; DPH fluorescence) | Rh (nm), hydrodynamic radius of micelles [3] | LeuT stabilization as concentration of compound increased [4] | MelB protein extraction efficiency and solubility ([1]; 55° C.) | maintaining the ligand binding characteristic of the receptor compared to DDM ([5]; 0 hour, CMC+0.2 wt %, [3H]-DHA) | ability to maintain the ligand binding of the receptor over time compared to DDM ([5]; 2 days at room temperature, early stage (0 to 12 h)) | receptor stability / ligand binding maintenance relative to DDM (fold, in words) ([5]; incubation at room temperature, early stage) | size of receptor-detergent complex [6]
1 | CCCCCCCCCCCCO[C@@H]1O[C@H](CO)[C@@H](O[C@H]2O[C@H](CO)[C@@H](O)[C@H](O)[C@H]2O)[C@H](O)[C@H]1O [DDM, n-dodecyl-β-D-maltopyranoside, reference compound] | high MelB protein extraction efficiency | high MelB protein extraction efficiency | hardly extracted | 0.17 mM | 0.17 mM | 0.0087 wt % | 3.4 ± 0.0 nm | constant structural collapse of the solubilized transporter | – | – | – | – | –
2 | CCCCCCCCCCCC[C@H]1c2cc(c(OCCO[C@@H]3OC(CO)[C@@H](O)[C@H](O)C3O)cc2OCCO[C@@H]2OC(CO)[C@@H](O)[C@H](O)C2O)[C@H](CCCCCCCCCCCC)c2cc(c(OCCO[C@@H]3OC(CO)[C@@H](O)[C@H](O)C3O)cc2OCCO[C@@H]2OC(CO)[C@@H](O)[C@H](O)C2O)[C@@H](CCCCCCCCCCCC)c2cc(c(OCCO[C@@H]3OC(CO)[C@@H](O)[C@H](O)C3O)cc2OCCO[C@@H]2OC(CO)[C@@H](O)[C@H](O)C2O)[C@@H](CCCCCCCCCCCC)c2cc1c(OCCO[C@@H]1OC(CO)[C@@H](O)[C@H](O)C1O)cc2OCCO[C@@H]1OC(CO)[C@@H](O)[C@H](O)C1O (stereo partly drawn) [RGA-C13] | – | – | – | – | – | ~0.0056 wt % | 3.7 ± 0.1 nm | – | maintained MelB solubility better than DDM; also recorded: higher protein extraction efficiency than DDM | superior to DDM | superior ability to maintain the ligand binding of the receptor compared to DDM | enhanced by almost three times | significantly smaller than that formed of DDM
